Test system: factors (genes) causing atopic dermatitis
Experiment: Expression of atopic dermatitis factors (genes) in skin of DNFB-treated mice, real time PCR (Experimental Example 4)
Type: in vivo
Details: RNA from skin of DNFB-treated female BALB/C mice, compound 100 μM on skin once a day to day 16; FIGS. 9 to 12
Experimental: For real time PCR, RNA was extracted using RNAiso Plus (TAKARA, Japan) and cDNA was synthesized using a cDNA synthesis kit (TAKARA, JAPAN). The polymerization reaction was carried out using the synthesized cDNA and a Sybr green kit (Enzynomics, Korea). […]

With `NC(=O)[C@H](Cc1c[nH]cn1)NC(=O)[C@H]1CCCN1C(=O)c1cccc(O)c1O` [Example 18] the “expression of the factors (genes) causing atopic dermatitis” value was “reduce the expression of the factors (genes)”.
